Non-standard residues stand in square brackets, D forms with d. Residues, ends and D or L forms follow the SMILES beside them.
Assays:
[1] = rabbit blood; cited from earlier work
[2] = tested on: primary cortical neuronal cultures; assay: Glutamate excitotoxicity in primary cortical neuronal cultures, neuronal viability by MTS assay; type: cell-based, rat; settings: Sprague-Dawley, rat, 18 h
Method: Neurons were resuspended in Neurobasal (NB; Invitrogen) containing 2% B27 supplement (B27; Invitrogen). Before seeding, culture vessels comprising either a 96-well plastic plate or 24-well plastic plate with 13 mm glass coverslips (ProSciTech, Australia), were coated with poly-D-lysine (50 μg/mL; 70-150K; Sigma) and incubated overnight at room temperature. […] Neurons were plated to obtain approximately 10,000 viable neurons for each well of a 96-well plate, or 200,000 viable neurons per well of a 24-well plate, on day in vitro (DIV) […]. […] On DIV 4, one third of the culture medium was removed and replaced with fresh NB/2% B27 containing the mitotic inhibitor, cytosine arabinofuranoside (Sigma) at 1 μM concentration. On DIV 8, one half of the culture medium was replaced with NB/2% B27.
To induce glutamate excitotoxicity in the cortical neuronal cultures (96-well plate format), 50 μl of conditioned media containing 200 μM glutamate was added to culture wells containing 50 μl conditioned media (100 μM final glutamate concentration). Cultures were incubated at 37° C. in a CO2 incubator for 5 minutes, after which time the media was replaced with 100 μl of 50% NB/2% N2 and 50% balance salt solution (NB/N2:BSS).
Untreated and glutamate-treated control samples received media additions with and without glutamate respectively.
Eighteen hours after glutamate exposure, neuronal cultures were examined by light microscopy for qualitative assessment of neuronal damage. Neuronal viability was quantitatively measured by 3-(4,5,dimethyliazol-2-yl)-5-(3-carboxymethoxy-phenyl)-2-(4-sulfophenyl)-2H-tetrazolium salt (MTS) assay (Promega, Australia). The MTS assay measures the mitochondrial conversion of the tetrazolium salt to a water-soluble brown formazan salt, which is detected spectrophotometrically at 495 nm. MTS absorbance data was converted to reflect proportional cell viability relative to both the untreated and glutamate treated controls. […] All assays were performed with quadruplicate sister neuronal cultures repeated a minimum of four times independently.

in vivo = settings: male, Sprague-Dawley, rat, iv, 3 mg/kg
Method: Male Sprague-Dawley rats (276-310 g) were dosed with peptide by i.v injection via the jugular vein. The calculated dose for each animal was 3 mg/kg of body weight and each isoflurane anaesthetised animal received dosing volumes of 0.1 ml/100 g of body weight of a 3 mg/ml solution. The remaining dosing solutions were subjected to a similar protocol as the solutions that were administered to the animals and were collected pre-labeled Maxymum Recovery (Axygen Scientific) low binding tubes, ready for quantification. Blood samples (0.2 ml) were collected just prior to dosing (pre-dose) and at various time points post-dosing according to the experimental schedule. Blood samples were collected from the jugular vein from the anaesthetized and transferred into 0.5 ml pre-labeled EDTA micro-centrifuge tubes and placed on ice. The tubes were then centrifuged for 5 mins at 3,000 RPM in a bench top microcentrifuge (4° C.). The plasma was transferred to pre-labeled 1.7 ml tubes, stored in a −80° C. freezer prior to analysis by LC-MS.
Analysis: Sample Preparation: 50 μl of plasma was added to 150 μl of precipitating solvent (75% acetonitrile/25% water+2% formic acid) and vortexed for 15 sec. The solution was centrifuged at 11,000 rpm at 4° C. for 5 mins. 100 μl of the supernatant was transferred to a HPLC vial for quantification. […]

in vitro = in vitro ADME; settings: human, plasma
Method: A stock solution of 200 μg/ml of peptide in PBS was diluted into 1.5 ml of human plasma or PBS to achieve a final concentration of 10 μg/ml. Of this solution, 50 μl was then dispensed into 200 μl Max Recovery tubes (Axygen Scientific) in triplicate for each time point needed in the study. The tubes were incubated at 37° C. and at the appropriate time point, they were removed from the incubator and 150 μl of extraction solution (75% acetonitrile/25% water+2% formic acid) was added. The tubes were vortexed for 15 sec and then centrifuged at 11,000 RPM for 5 mins at 4° C. Then, 100 μl of the supernatant was transferred into HPLC vials for analysis.
A fixed mobile phase was used so that all of the different charged species of peptide would elute at the same time, allowing a mass measurement of non-degraded material. Injection volume: 10 μl; Column: Phenomenex Aqua C18 5 μM 150 mm×4.6 mm; Flow: 0.8 ml/min; 85% Mobile phase A: 4% formic acid in nanopure water; 15% Mobile phase B: acetonitrile; RT: 1.3 minutes; Stop time: 3.0 minutes. Mass Spectrometer: MS-03 LC/MSD Trap XCT Ultra.

Row | half-life (in vivo) | half-life at 10 μg/ml (in vitro) | Molecule | in vivo half life [1] | neuronal viability following glutamate excitotoxicity ([2]; 1 μM) | neuronal viability following glutamate excitotoxicity ([2]; 5 μM)
1 | – | – | tissue plasminogen activator [tPA] | a few minutes | – | –
2 | 1.67 h | > 12 h | CC[C@@H](C)[C@@H](NC(=O)[C@@H](CCCCN)NC(=O)[C@H]1CCCN1)C(=O)N[C@H](CO)C(=O)N[C@H](CCC(N)=O)C(=O)N[C@H](Cc1ccc(O)cc1)C(=O)NCC(=O)N[C@H](CCC(N)=O)C(=O)N[C@H](CCCNC(=N)N)C(=O)N[C@H](CCCNC(=N)N)C(=O)N[C@H](CCCNC(=N)N)C(=O)NCC(=O)N[C@H](CCC(N)=O)C(=O)N[C@H](CC(C)C)C(=O)NCC(=O)NCC(=O)N[C@H](CCCNC(=N)N)C(=O)N[C@H](CCCNC(=N)N)C(=O)N[C@H](CCCNC(=N)N)C(=O)N[C@H](CCC(N)=O)C(=O)N[C@H](CCCNC(=N)N)C(=O)N[C@H](CCCNC(=N)N)C(=O)N[C@H](CCCCN)C(=O)N[C@H](CCCCN)C(=O)N[C@H](CCCNC(=N)N)C(=O)NCC(=O)O [PYC36D-TAT] (H-[dP][dK][dI][dS][dQ][dY]G[dQ][dR][dR][dR]G[dQ][dL]GG[dR][dR][dR][dQ][dR][dR][dK][dK][dR]G-OH; N-terminus and C-terminus assumed) | – | 44% | 82%
3 | 0.583 h | > 12 h | CC[C@@H](C)[C@@H](NC(=O)[C@@H](CCC(=O)O)NC(=O)[C@@H](CO)NC(=O)[C@@H](CO)NC(=O)[C@@H](CO)NC(=O)[C@@H](CCCCN)NC(=O)[C@@H](CCCNC(=N)N)NC(=O)[C@@H](CCC(=O)O)NC(=O)[C@H](N)CCCNC(=N)N)C(=O)NCC(=O)NCC(=O)N[C@H](CO)C(=O)N[C@H](CCCNC(=N)N)C(=O)N[C@@H](C(=O)N[C@H](CO)C(=O)N[C@H](CCC(N)=O)C(=O)N[C@H](Cc1ccc(O)cc1)C(=O)N[C@H](C)C(=O)NCC(=O)N[C@H](CCCNC(=N)N)C(=O)N[C@H](CCCNC(=N)N)C(=O)N[C@H](CCCNC(=N)N)C(=O)N[C@H](CCC(N)=O)C(=O)N[C@H](CCCNC(=N)N)C(=O)N[C@H](CCCNC(=N)N)C(=O)N[C@H](CCCCN)C(=O)N[C@H](CCCCN)C(=O)N[C@H](CCCNC(=N)N)C(=O)NCC(=O)O)[C@H](C)CC [PYC35D-TAT] (H-[dR][dE][dR][dK][dS][dS][dS][dE][dI]GG[dS][dR][dI][dS][dQ][dY][dA]G[dR][dR][dR][dQ][dR][dR][dK][dK][dR]G-OH; N-terminus and C-terminus assumed) | – | – | 59%

From patent US8063012B2, “Neuroprotective peptide inhibitors of AP-1 signaling and uses therefor” (Phylogica Limited, priority 2006, dated 2011)
